“Also recorded” adds a separate entry of the source.
Experiments:
[1] = Intact ester in blood and urine after oral administration to human volunteers; format: in vivo; settings: urine, read-out: ester present in urine
[2] = Oral absorption in fasting human volunteers (syrup): serum ticarcillin, AUC and urinary excretion by bio-assay, Experiments A-D; format: in vivo
Experimental: To obtain the results shown in table 1, the two esters of ticarcillin were each given to a panel of fasting human volunteers in a syrup formulation in an amount equivalent to provide either 200 or 400 mg (as stated in table 1) of the free ticarcillin after the expected in vivo hydrolysis. Periodic blood samples were taken from the volunteers and each assayed for ticarcillin content by a standard bio-assay technique. The urine excreted by each volunteer within the 6 hours following administration was also collected and assayed for the free ticarcillin. All three parameters (viz the urinary excretion level, the peak serum concentration achieved and the total area under the curve when the serum concentration is plotted against time) are indications of the minimum degree to which the penicillin ester has been absorbed after oral administration and then hydrolysed in vivo.

[3] = Oral administration as syrup equivalent to 400 mg ticarcillin, phenyl vs p-tolyl ester (data of British Pat. No. 1,455,529); format: in vivo, man
Excerpt: The improved bioavailability can also be seen from the individual mean serum concentration figures in table 1. […] This can be seen by the comparison with the phenyl ester and for convenience the data from specification No. 1,455,529 is repeated in table 3 below:
(Administration as syrup containing equivalent

[4] = in words; cited from earlier work

Structure (SMILES)	dose excreted at 6 h [1] [%]	urinary recovery of ticarcillin compared to the phenyl ester ([2]; in words)	bioavailability of ticarcillin after oral administration compared to the phenyl ester ([2]; in words, AUC, listed as α-ortho-tolyl ester)	bioavailability as measured by AUC higher than for the phenyl ester ([2]; o-tolyl vs phenyl ester, oral, man, overall)	oral absorption compared to the ortho ester ([3]; in words, p-tolyl vs α-ortho ester)	statistical significance of differences in mean serum concentrations ([3]; p-tolyl vs phenyl ester, table 3)	oral absorption in man [4]
CC1(C)S[C@@H]2[C@H](NC(=O)C(C(=O)Oc3ccccc3)c3ccsc3)C(=O)N2[C@H]1C(=O)O (stereo partly drawn) [phenyl, α-phenyl ester of α-carboxy-3-thienylmethyl penicillin, reference compound]	~1	–	–	–	–	–	–
Cc1ccccc1OC(=O)C(C(=O)N[C@@H]1C(=O)N2[C@@H]1SC(C)(C)[C@@H]2C(=O)O)c1ccsc1 (stereo partly drawn) [o-tolyl, 6β-[2-(2'-methylphenoxycarbonyl)-2-thien-3'-ylacetamido]penicillanic acid]	~2	greater urinary recovery	considerably greater; also recorded: two- to three-fold greater	120-220%	–	–	–
Cc1ccc(OC(=O)C(C(=O)N[C@@H]2C(=O)N3[C@@H]2SC(C)(C)[C@@H]3C(=O)O)c2ccsc2)cc1 (stereo partly drawn) [p-tolyl, α-para-tolyl mono-ester of α-carboxy-3-thienylmethyl penicillin]	–	–	–	–	much less well absorbed	not statistically significant	high degree of oral absorption in man

— US4385060A, “Penicillins” (Beecham Group Limited, priority 1979, dated 1983)
